Data on two compounds can be found in US20220016135A1, “TREATING BREAST CANCER WITH HORMONE RECEPTOR MODULATORS” (UNIVERSITY OF MIAMI, priority 2020, published 2022).

Format in all cases: cell-based, human
One experiment concerns MDA-MB-453. Nature of the experiment: cell proliferation assay, MDA-MB-453. The conditions noted are these: ER-negative control cell line MDA-MB-453, ICI 182,780 100 nM; FIG. 24H.
A further experiment deals with BT20. Nature of the experiment: cell proliferation assay (cell titer blue), BT20. The note with it: BT20 (HR1, VDR+), Calcitrol 25 nM alone; FIG. 24A-24C. A general note: The colour change of resazurin is a common sign of viable cells or microbes.
The next experiment relates to MDA-MB-468. Nature of the experiment: cell proliferation assay (cell titer blue), MDA-MB-468. The note with it: MDA-MB-468 (HR1, VDR+), Calcitrol 25 nM alone; FIG. 24A-24C.
In another experiment the test system is SUM159. Nature of the experiment: cell proliferation assay (cell titer blue), SUM159. The note with it: SUM159 (HR1, VDR+), Calcitrol 25 nM alone; FIG. 24A-24C.

SMILES strings stand for the structures.

With `C[C@]12CC[C@@H]3c4ccc(O)cc4C[C@@H](CCCCCCCCC[S+]([O-])CCCC(F)(F)C(F)(F)F)[C@H]3[C@@H]1CC[C@@H]2O` (stereo partly shown) [ICI 182,780], the “inhibition of cell proliferation” value in the experiment with MDA-MB-453 is “no inhibition of cell proliferation”.

Turning to `C=C1/C(=C\C=C2/CCC[C@]3(C)[C@@H]([C@H](C)CCCC(C)(C)O)CC[C@@H]23)C[C@@H](O)C[C@@H]1O` [Calcitrol, Calcitriol], the proliferation entry with BT20, with MDA-MB-468 and in the experiment on SUM159 was “reduction in proliferation” in each case.
